Results as given in BigSolDB 2.1.

O=C1CCC(=O)O1
solubility (mole fraction)
Details	278.15 K	283.15 K	288.15 K	293.15 K	298.15 K	303.15 K
in acetone	0.0721	0.0863	0.103	0.121	0.143	0.166
in acetonitrile	0.114	0.121	0.129	0.137	0.146	0.156
in ethyl acetate	0.0485	0.0544	0.0611	0.0684	0.0771	0.0853
in isopropanol	0.0502	0.0562	0.0632	0.0705	0.0793	0.0889
